Test results reported in the kinase profiling compilation of Christmann-Franck et al. (2016).

Legend:
Experiment in all cases: radiometric filter-binding kinase assay
STK3 (human) = STK3 (human) (UniProt Q13188)
EPHB3 (human) = EPHB3 (human) (UniProt P54753)
[1] = system: SGK1 (human), O00141 [S422D]
RPS6KA1 KD1 KD2 (human) = RPS6KA1 KD1 KD2 (human) (UniProt Q15418)
MAP3K11 (human) = MAP3K11 (human) (UniProt Q16584)
IRAK4 (human) = IRAK4 (human) (UniProt Q9NWZ3)
CLK2 (human) = CLK2 (human) (UniProt P49760)
IKBKE (human) = IKBKE (human) (UniProt Q14164)
IKBKB (human) = IKBKB (human) (UniProt O14920)
[2] = system: RPS6KB1 (human), P23443 [T412E]
RPS6KB1 (human), P23443 [T412E], sequence (P23443 whole entry T412E, looked up): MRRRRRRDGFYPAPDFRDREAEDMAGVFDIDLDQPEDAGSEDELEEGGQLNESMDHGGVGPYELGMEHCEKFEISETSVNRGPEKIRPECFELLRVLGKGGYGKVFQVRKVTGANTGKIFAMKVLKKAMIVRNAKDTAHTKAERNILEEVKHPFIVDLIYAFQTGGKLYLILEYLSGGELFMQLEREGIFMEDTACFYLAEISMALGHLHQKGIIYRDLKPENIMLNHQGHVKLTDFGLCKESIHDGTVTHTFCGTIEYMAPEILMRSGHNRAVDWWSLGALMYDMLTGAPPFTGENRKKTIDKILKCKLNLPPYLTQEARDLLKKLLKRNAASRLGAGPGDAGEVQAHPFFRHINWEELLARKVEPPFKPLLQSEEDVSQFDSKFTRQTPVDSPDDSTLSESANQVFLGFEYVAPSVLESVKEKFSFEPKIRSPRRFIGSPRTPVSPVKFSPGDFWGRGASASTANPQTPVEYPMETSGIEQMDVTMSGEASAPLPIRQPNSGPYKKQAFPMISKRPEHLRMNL

TBK1 (human) = TBK1 (human) (UniProt Q9UHD2)
TBK1 (human), sequence (Q9UHD2 whole entry, looked up): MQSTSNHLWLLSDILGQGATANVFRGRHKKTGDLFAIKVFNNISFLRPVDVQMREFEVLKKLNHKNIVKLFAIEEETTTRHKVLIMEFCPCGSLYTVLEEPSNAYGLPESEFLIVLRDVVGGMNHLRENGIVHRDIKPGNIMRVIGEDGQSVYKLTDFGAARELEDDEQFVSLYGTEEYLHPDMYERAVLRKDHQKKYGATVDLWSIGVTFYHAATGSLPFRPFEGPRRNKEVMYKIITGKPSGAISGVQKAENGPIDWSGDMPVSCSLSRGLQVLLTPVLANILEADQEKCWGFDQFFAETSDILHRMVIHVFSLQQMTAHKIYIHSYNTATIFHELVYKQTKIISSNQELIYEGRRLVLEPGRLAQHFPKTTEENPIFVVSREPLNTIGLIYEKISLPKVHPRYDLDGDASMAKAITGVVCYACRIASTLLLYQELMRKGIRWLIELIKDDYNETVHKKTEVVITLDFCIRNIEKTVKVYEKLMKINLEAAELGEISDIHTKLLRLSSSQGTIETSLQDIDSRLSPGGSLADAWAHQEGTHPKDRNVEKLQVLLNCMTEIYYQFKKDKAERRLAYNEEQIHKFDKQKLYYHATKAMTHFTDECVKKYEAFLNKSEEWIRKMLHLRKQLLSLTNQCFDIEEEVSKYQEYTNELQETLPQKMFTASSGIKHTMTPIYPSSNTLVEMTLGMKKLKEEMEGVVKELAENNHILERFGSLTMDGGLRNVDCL

[3] = system: AKT1 (human), P31749 [S473D]
MAPK3 (human) = MAPK3 (human) (UniProt P27361)
MAPKAPK3 (human) = MAPKAPK3 (human) (UniProt Q16644)
DYRK3 (human) = DYRK3 (human) (UniProt O43781)
RPS6KA3 KD1 KD2 (human) = RPS6KA3 KD1 KD2 (human) (UniProt P51812)
MAPK8 (human) = MAPK8 (human) (UniProt P45983)
MAPK8 (human), sequence (P45983 whole entry, looked up): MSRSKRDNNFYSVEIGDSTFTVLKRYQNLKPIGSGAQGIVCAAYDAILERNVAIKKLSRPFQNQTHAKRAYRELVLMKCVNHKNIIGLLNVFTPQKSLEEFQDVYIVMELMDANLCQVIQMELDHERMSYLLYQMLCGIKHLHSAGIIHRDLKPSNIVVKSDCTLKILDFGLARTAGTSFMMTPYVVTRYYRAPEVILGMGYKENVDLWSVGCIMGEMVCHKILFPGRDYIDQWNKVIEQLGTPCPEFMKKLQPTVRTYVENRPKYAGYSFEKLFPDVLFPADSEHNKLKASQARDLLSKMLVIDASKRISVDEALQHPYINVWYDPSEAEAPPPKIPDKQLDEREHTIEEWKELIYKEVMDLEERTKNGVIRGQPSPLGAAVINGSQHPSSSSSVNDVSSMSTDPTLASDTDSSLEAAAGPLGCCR

DYRK1A (human) = DYRK1A (human) (UniProt Q13627)
MAP3K7 TAB1 (human) = MAP3K7 TAB1 (human) (UniProt Q15750+O43318)
MAP3K7 TAB1 (human), sequence (O43318 whole entry, looked up): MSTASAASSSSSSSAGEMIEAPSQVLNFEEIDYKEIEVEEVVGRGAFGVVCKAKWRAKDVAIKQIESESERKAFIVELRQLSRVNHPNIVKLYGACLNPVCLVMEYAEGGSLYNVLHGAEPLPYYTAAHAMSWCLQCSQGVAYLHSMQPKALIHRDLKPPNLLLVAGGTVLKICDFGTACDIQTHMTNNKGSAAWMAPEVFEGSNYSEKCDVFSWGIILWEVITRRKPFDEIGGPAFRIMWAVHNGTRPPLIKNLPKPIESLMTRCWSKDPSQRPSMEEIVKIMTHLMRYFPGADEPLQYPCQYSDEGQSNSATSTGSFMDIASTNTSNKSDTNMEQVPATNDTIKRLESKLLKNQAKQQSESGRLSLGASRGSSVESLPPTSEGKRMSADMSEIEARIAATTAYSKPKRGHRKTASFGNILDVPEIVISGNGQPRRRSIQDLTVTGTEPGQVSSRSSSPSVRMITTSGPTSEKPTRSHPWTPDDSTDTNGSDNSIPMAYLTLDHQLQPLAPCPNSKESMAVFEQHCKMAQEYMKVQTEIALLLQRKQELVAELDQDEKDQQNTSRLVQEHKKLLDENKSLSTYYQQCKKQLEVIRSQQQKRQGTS
MAP3K7 TAB1 (human), sequence (Q15750 whole entry, looked up): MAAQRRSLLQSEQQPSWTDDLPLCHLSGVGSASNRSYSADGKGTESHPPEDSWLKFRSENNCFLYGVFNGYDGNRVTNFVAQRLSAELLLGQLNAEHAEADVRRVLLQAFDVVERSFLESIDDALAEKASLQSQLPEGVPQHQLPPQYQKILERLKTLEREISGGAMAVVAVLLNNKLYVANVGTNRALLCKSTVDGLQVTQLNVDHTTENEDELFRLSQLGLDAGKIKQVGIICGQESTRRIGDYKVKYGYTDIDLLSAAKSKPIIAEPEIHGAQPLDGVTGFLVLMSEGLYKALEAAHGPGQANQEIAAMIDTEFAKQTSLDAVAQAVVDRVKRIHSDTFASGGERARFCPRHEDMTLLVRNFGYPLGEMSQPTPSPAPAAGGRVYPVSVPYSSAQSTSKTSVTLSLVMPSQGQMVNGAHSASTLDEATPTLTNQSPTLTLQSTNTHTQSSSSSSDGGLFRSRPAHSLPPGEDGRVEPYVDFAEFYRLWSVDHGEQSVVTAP

PIM3 (human) = PIM3 (human) (UniProt Q86V86)
PIM2 (human) = PIM2 (human) (UniProt Q9P1W9)
PIM2 (human), sequence (Q9P1W9 whole entry, looked up): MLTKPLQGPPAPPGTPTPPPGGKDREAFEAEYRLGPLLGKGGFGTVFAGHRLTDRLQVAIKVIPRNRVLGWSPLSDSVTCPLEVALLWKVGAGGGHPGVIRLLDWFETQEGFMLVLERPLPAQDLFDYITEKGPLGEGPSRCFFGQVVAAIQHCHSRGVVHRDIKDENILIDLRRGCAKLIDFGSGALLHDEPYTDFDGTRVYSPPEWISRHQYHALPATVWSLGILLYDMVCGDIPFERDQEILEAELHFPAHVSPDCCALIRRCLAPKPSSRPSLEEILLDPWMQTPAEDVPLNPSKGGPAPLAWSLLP

PLK1 (human) = PLK1 (human) (UniProt P53350)
ROCK2 (rat) = details: accession and sequence are those of the human protein
NTRK1 (human) = NTRK1 (human) (UniProt P04629)
CSNK2A1 (human) = CSNK2A1 (human) (UniProt P68400)
MAPKAPK5 (human) = MAPKAPK5 (human) (UniProt Q8IW41)
PAK4 (human) = PAK4 (human) (UniProt O96013)
PAK4 (human), sequence (O96013 whole entry, looked up): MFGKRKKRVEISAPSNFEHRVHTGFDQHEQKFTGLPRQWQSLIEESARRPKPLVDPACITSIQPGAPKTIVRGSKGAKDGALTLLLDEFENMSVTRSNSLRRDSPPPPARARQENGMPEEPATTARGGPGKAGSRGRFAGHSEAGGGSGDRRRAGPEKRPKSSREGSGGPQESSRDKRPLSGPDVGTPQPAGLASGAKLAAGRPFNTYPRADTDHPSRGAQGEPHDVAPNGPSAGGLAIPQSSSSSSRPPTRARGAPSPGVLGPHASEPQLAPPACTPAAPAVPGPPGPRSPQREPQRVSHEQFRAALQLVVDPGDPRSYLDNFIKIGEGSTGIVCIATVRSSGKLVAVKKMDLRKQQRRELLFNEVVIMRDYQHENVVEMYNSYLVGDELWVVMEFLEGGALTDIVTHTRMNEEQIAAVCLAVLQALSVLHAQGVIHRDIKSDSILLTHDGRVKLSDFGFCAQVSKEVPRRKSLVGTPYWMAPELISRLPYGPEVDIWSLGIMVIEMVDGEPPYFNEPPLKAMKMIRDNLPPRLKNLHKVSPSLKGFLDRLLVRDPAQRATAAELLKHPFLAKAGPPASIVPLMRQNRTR

PIM1 (human) = PIM1 (human) (UniProt P11309)
MAPK11 (human) = MAPK11 (human) (UniProt Q15759)
MAPK14 (human) = MAPK14 (human) (UniProt Q16539)
BRSK2 (human) = BRSK2 (human) (UniProt Q8IWQ3)
MAPK12 (human) = MAPK12 (human) (UniProt P53778)
MAPK12 (human), sequence (P53778 whole entry, looked up): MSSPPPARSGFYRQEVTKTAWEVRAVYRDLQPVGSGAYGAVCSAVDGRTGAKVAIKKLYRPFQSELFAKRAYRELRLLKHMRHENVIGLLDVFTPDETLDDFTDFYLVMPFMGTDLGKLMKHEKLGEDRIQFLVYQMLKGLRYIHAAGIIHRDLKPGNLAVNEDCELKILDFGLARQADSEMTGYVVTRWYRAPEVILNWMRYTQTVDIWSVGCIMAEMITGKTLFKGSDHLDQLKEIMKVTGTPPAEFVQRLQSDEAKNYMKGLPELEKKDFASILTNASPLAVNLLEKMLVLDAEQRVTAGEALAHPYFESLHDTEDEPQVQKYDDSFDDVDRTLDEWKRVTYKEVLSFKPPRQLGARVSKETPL

DAPK1 (human) = DAPK1 (human) (UniProt P53355)
MAP2K6 (human) = MAP2K6 (human) (UniProt P52564)
MKNK2 (human) = MKNK2 (human) (UniProt Q9HBH9)

STK3 (human), sequence (Q13188 whole entry, looked up): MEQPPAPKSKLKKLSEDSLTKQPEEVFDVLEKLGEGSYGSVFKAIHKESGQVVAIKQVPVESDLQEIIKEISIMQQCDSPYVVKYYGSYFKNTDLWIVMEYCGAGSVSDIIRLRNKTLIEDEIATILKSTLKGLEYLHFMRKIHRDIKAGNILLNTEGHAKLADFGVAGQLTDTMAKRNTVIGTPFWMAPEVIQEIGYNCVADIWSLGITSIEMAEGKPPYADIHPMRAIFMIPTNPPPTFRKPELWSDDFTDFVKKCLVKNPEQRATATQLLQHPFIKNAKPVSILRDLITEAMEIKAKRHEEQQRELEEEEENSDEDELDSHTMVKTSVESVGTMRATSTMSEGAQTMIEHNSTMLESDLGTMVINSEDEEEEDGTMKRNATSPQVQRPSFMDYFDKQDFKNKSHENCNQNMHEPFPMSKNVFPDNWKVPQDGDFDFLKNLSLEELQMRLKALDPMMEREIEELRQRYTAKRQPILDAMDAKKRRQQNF
SGK1 (human), O00141 [S422D], sequence (O00141 whole entry S422D, looked up): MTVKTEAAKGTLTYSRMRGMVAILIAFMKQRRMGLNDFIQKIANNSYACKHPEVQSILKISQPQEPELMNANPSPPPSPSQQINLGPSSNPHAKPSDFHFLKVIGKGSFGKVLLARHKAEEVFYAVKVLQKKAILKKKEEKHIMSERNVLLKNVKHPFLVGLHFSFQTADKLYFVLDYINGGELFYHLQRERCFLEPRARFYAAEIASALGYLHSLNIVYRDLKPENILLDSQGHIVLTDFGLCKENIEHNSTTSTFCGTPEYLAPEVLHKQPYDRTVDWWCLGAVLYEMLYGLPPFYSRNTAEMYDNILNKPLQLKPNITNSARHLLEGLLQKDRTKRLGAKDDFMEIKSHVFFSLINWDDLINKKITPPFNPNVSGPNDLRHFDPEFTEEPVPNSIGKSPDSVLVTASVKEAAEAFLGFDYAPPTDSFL

CCn1c(-c2nonc2N)nc2cncc(CNC3CCNCC3)c21
residual activity (STK3 (human); compound 0.1 µM): 106%
residual activity (STK3 (human); compound 1.0 µM): 97%
residual activity (STK3 (human); compound 10.0 µM): 71%
residual activity (EPHB3 (human); compound 0.1 µM): 81%
residual activity (EPHB3 (human); compound 1.0 µM): 99%
residual activity (EPHB3 (human); compound 10.0 µM): 83%
residual activity ([1]; compound 0.1 µM): 82%
residual activity ([1]; compound 1.0 µM): 55%
residual activity ([1]; compound 10.0 µM): 25%
residual activity (RPS6KA1 KD1 KD2 (human); compound 0.1 µM): 33%
residual activity (RPS6KA1 KD1 KD2 (human); compound 1.0 µM): 15%
residual activity (RPS6KA1 KD1 KD2 (human); compound 10.0 µM): 9%
residual activity (MAP3K11 (human); compound 1.0 µM): 111%
residual activity (MAP3K11 (human); compound 10.0 µM): 89%
residual activity (IRAK4 (human); compound 0.1 µM): 99%
residual activity (IRAK4 (human); compound 1.0 µM): 86%
residual activity (IRAK4 (human); compound 10.0 µM): 87%
residual activity (CLK2 (human); compound 0.1 µM): 107%
residual activity (CLK2 (human); compound 1.0 µM): 71%
residual activity (CLK2 (human); compound 10.0 µM): 22%
residual activity (IKBKE (human); compound 0.1 µM): 111%
residual activity (IKBKE (human); compound 1.0 µM): 110%
residual activity (IKBKE (human); compound 10.0 µM): 115%
residual activity (IKBKB (human); compound 0.1 µM): 98%
residual activity (IKBKB (human); compound 1.0 µM): 97%
residual activity (IKBKB (human); compound 10.0 µM): 100%
residual activity ([2]; compound 0.1 µM): 16%
residual activity ([2]; compound 1.0 µM): 5%
residual activity ([2]; compound 10.0 µM): 4%
residual activity (TBK1 (human); compound 0.1 µM): 88%
residual activity (TBK1 (human); compound 1.0 µM): 93%
residual activity (TBK1 (human); compound 10.0 µM): 78%
residual activity ([3]; compound 0.1 µM): 48%
residual activity ([3]; compound 1.0 µM): 16%
residual activity ([3]; compound 10.0 µM): 4%
residual activity (MAPK3 (human); compound 0.1 µM): 95%
residual activity (MAPK3 (human); compound 1.0 µM): 98%
residual activity (MAPK3 (human); compound 10.0 µM): 97%
residual activity (MAPKAPK3 (human); compound 0.1 µM): 98%
residual activity (MAPKAPK3 (human); compound 1.0 µM): 101%
residual activity (MAPKAPK3 (human); compound 10.0 µM): 97%
residual activity (DYRK3 (human); compound 0.1 µM): 107%
residual activity (DYRK3 (human); compound 1.0 µM): 93%
residual activity (DYRK3 (human); compound 10.0 µM): 72%
residual activity (RPS6KA3 KD1 KD2 (human); compound 0.1 µM): 94%
residual activity (MAPK8 (human); compound 0.1 µM): 112%
residual activity (MAPK8 (human); compound 1.0 µM): 105%
residual activity (MAPK8 (human); compound 10.0 µM): 101%
residual activity (DYRK1A (human); compound 0.1 µM): 92%
residual activity (DYRK1A (human); compound 1.0 µM): 73%
residual activity (DYRK1A (human); compound 10.0 µM): 35%
residual activity (MAP3K7 TAB1 (human); compound 0.1 µM): 95%
residual activity (MAP3K7 TAB1 (human); compound 1.0 µM): 94%
residual activity (MAP3K7 TAB1 (human); compound 10.0 µM): 82%
residual activity (PIM3 (human); compound 0.1 µM): 76%
residual activity (PIM3 (human); compound 1.0 µM): 36%
residual activity (PIM3 (human); compound 10.0 µM): 13%
residual activity (PIM2 (human); compound 1.0 µM): 110%
residual activity (PIM2 (human); compound 10.0 µM): 69%
residual activity (PLK1 (human); compound 0.1 µM): 83%
residual activity (PLK1 (human); compound 1.0 µM): 60%
residual activity (PLK1 (human); compound 10.0 µM): 41%
residual activity (ROCK2 (rat); compound 0.1 µM): 31%
residual activity (ROCK2 (rat); compound 1.0 µM): 23%
residual activity (ROCK2 (rat); compound 10.0 µM): 17%
residual activity (NTRK1 (human); compound 0.1 µM): 104%
residual activity (NTRK1 (human); compound 1.0 µM): 99%
residual activity (NTRK1 (human); compound 10.0 µM): 97%
residual activity (CSNK2A1 (human); compound 0.1 µM): 71%
residual activity (CSNK2A1 (human); compound 1.0 µM): 74%
residual activity (CSNK2A1 (human); compound 10.0 µM): 86%
residual activity (MAPKAPK5 (human); compound 0.1 µM): 94%
residual activity (MAPKAPK5 (human); compound 1.0 µM): 95%
residual activity (MAPKAPK5 (human); compound 10.0 µM): 96%
residual activity (PAK4 (human); compound 1.0 µM): 96%
residual activity (PAK4 (human); compound 10.0 µM): 79%
residual activity (PIM1 (human); compound 0.1 µM): 94%
residual activity (PIM1 (human); compound 1.0 µM): 35%
residual activity (PIM1 (human); compound 10.0 µM): 7%
residual activity (MAPK11 (human); compound 0.1 µM): 102%
residual activity (MAPK11 (human); compound 1.0 µM): 96%
residual activity (MAPK11 (human); compound 10.0 µM): 89%
residual activity (MAPK14 (human); compound 0.1 µM): 101%
residual activity (MAPK14 (human); compound 1.0 µM): 95%
residual activity (MAPK14 (human); compound 10.0 µM): 94%
residual activity (BRSK2 (human); compound 0.1 µM): 96%
residual activity (BRSK2 (human); compound 1.0 µM): 89%
residual activity (BRSK2 (human); compound 10.0 µM): 41%
residual activity (MAPK12 (human); compound 0.1 µM): 119%
residual activity (MAPK12 (human); compound 1.0 µM): 112%
residual activity (MAPK12 (human); compound 10.0 µM): 109%
residual activity (DAPK1 (human); compound 0.1 µM): 111%
residual activity (DAPK1 (human); compound 1.0 µM): 84%
residual activity (DAPK1 (human); compound 10.0 µM): 35%
residual activity (MAP2K6 (human); compound 0.1 µM): 89%
residual activity (MAP2K6 (human); compound 1.0 µM): 90%
residual activity (MAP2K6 (human); compound 10.0 µM): 96%
residual activity (MKNK2 (human); compound 0.1 µM): 110%
residual activity (MKNK2 (human); compound 1.0 µM): 116%
residual activity (MKNK2 (human); compound 10.0 µM): 77%

NC(=O)c1c(NC(=O)C2CC2)sc2c1CCCC2
residual activity (STK3 (human); compound 1.0 µM): 90%
residual activity (STK3 (human); compound 10.0 µM): 53%
residual activity (EPHB3 (human); compound 1.0 µM): 115%
residual activity (EPHB3 (human); compound 10.0 µM): 109%
residual activity ([1]; compound 1.0 µM): 109%
residual activity ([1]; compound 10.0 µM): 107%
residual activity (RPS6KA1 KD1 KD2 (human); compound 1.0 µM): 101%
residual activity (RPS6KA1 KD1 KD2 (human); compound 10.0 µM): 95%
residual activity (MAP3K11 (human); compound 1.0 µM): 89%
residual activity (MAP3K11 (human); compound 10.0 µM): 37%
residual activity (IRAK4 (human); compound 1.0 µM): 68%
residual activity (IRAK4 (human); compound 10.0 µM): 28%
residual activity (CLK2 (human); compound 1.0 µM): 89%
residual activity (CLK2 (human); compound 10.0 µM): 49%
residual activity (IKBKE (human); compound 10.0 µM): 109%
residual activity (IKBKB (human); compound 1.0 µM): 100%
residual activity (IKBKB (human); compound 10.0 µM): 93%
residual activity ([2]; compound 1.0 µM): 100%
residual activity ([2]; compound 10.0 µM): 98%
residual activity (TBK1 (human); compound 1.0 µM): 99%
residual activity (TBK1 (human); compound 10.0 µM): 107%
residual activity ([3]; compound 1.0 µM): 115%
residual activity ([3]; compound 10.0 µM): 102%
residual activity (MAPK3 (human); compound 1.0 µM): 107%
residual activity (MAPK3 (human); compound 10.0 µM): 125%
residual activity (MAPKAPK3 (human); compound 1.0 µM): 100%
residual activity (MAPKAPK3 (human); compound 10.0 µM): 93%
residual activity (DYRK3 (human); compound 1.0 µM): 111%
residual activity (DYRK3 (human); compound 10.0 µM): 109%
residual activity (RPS6KA3 KD1 KD2 (human); compound 1.0 µM): 107%
residual activity (RPS6KA3 KD1 KD2 (human); compound 10.0 µM): 89%
residual activity (MAPK8 (human); compound 1.0 µM): 97%
residual activity (MAPK8 (human); compound 10.0 µM): 102%
residual activity (DYRK1A (human); compound 1.0 µM): 85%
residual activity (DYRK1A (human); compound 10.0 µM): 48%
residual activity (MAP3K7 TAB1 (human); compound 1.0 µM): 92%
residual activity (MAP3K7 TAB1 (human); compound 10.0 µM): 53%
residual activity (PIM3 (human); compound 1.0 µM): 111%
residual activity (PIM3 (human); compound 10.0 µM): 68%
residual activity (PIM2 (human); compound 1.0 µM): 98%
residual activity (PIM2 (human); compound 10.0 µM): 92%
residual activity (PLK1 (human); compound 1.0 µM): 98%
residual activity (PLK1 (human); compound 10.0 µM): 100%
residual activity (ROCK2 (rat); compound 1.0 µM): 95%
residual activity (ROCK2 (rat); compound 10.0 µM): 91%
residual activity (NTRK1 (human); compound 1.0 µM): 90%
residual activity (NTRK1 (human); compound 10.0 µM): 30%
residual activity (CSNK2A1 (human); compound 10.0 µM): 106%
residual activity (MAPKAPK5 (human); compound 1.0 µM): 96%
residual activity (MAPKAPK5 (human); compound 10.0 µM): 62%
residual activity (PAK4 (human); compound 1.0 µM): 93%
residual activity (PAK4 (human); compound 10.0 µM): 46%
residual activity (PIM1 (human); compound 1.0 µM): 96%
residual activity (PIM1 (human); compound 10.0 µM): 87%
residual activity (MAPK11 (human); compound 1.0 µM): 99%
residual activity (MAPK11 (human); compound 10.0 µM): 98%
residual activity (MAPK14 (human); compound 1.0 µM): 100%
residual activity (MAPK14 (human); compound 10.0 µM): 101%
residual activity (BRSK2 (human); compound 1.0 µM): 99%
residual activity (BRSK2 (human); compound 10.0 µM): 73%
residual activity (MAPK12 (human); compound 1.0 µM): 93%
residual activity (MAPK12 (human); compound 10.0 µM): 94%
residual activity (DAPK1 (human); compound 1.0 µM): 102%
residual activity (DAPK1 (human); compound 10.0 µM): 86%
residual activity (MAP2K6 (human); compound 1.0 µM): 109%
residual activity (MAP2K6 (human); compound 10.0 µM): 99%
residual activity (MKNK2 (human); compound 1.0 µM): 106%
residual activity (MKNK2 (human); compound 10.0 µM): 115%
